Measurements reported in patent US20180265515A1 (Genentech, Inc., priority 2015, published 2018).

Legend:
[1] = molecular target: T1, isolated recombinant JAK2 kinase domain (Homo sapiens, UniProt O60674); assay: JAK2 enzyme assay (Caliper LabChip, Ki); type: biochemical; details: 25 μM ATP
T1 construct: The activity of the isolated recombinant JAK1 and JAK2 kinase domain was measured
Procedure: (§1) JAK Enzyme Assays were Carried Out as Follows:
(§2) The activity of the isolated recombinant JAK1 and JAK2 kinase domain was measured by monitoring phosphorylation of a peptide derived from JAK3 (Val-Ala-Leu-Val-Asp-Gly-Tyr-Phe-Arg-Leu-Thr-Thr, fluorescently labeled on the N-terminus with 5-carboxyfluorescein) using the Caliper LabChip® technology (Caliper Life Sciences, Hopkinton, Mass.). […] Reactions were incubated at 22° C. in 384-well polypropylene microtiter plates for 30 minutes and then stopped by addition of 25 μL of an EDTA containing solution (100 mM HEPES buffer (pH 7.2), 0.015% Brij-35, 150 mM EDTA), resulting in a final EDTA concentration of 50 mM. After termination of the kinase reaction, the proportion of phosphorylated product was determined as a fraction of total peptide substrate using the Caliper LabChip® 3000 according to the manufacturer's specifications. Ki values were then determined using the Morrison tight binding model (Morrison, J. F., Biochim. Biophys. Acta. 185:269-296 (1969); William, J. W. and Morrison, J. F., Meth. Enzymol., 63:437-467 (1979)) modified for ATP-competitive inhibition [Ki=Ki,app/(1+[ATP]/Km,app)].

[2] = molecular target: T2, isolated recombinant JAK1 kinase domain (Homo sapiens, UniProt P23458); assay: JAK1 enzyme assay (Caliper LabChip, Ki); type: biochemical; details: recombinant JAK1 kinase domain, 25 μM ATP
T2 construct: The activity of the isolated recombinant JAK1 and JAK2 kinase domain was measured
T2 sequence (P23458 875-1153 limits assumed): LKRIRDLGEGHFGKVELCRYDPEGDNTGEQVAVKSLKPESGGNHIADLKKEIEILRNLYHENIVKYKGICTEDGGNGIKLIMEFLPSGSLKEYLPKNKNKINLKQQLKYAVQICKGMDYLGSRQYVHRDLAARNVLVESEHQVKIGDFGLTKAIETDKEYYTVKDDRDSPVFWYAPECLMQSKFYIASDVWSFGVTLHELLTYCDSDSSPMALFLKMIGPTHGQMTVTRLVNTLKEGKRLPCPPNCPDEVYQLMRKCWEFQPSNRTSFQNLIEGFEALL
Procedure: as §1, §2

[3] = tested on: JAK1-dependent STAT6 phosphorylation downstream of IL-13 stimulation in BEAS-2B human bronchial epithelial cells; assay: JAK1 pathway assay in BEAS-2B cells (IL-13 stimulated STAT6 phosphorylation, MSD); type: cell-based; details: read-out: P-STAT6 BEAS2B + IL13 IC50
Procedure: JAK1 Pathway Assay in Cell Lines was Carried Out as Follows:
Inhibitor potency (EC50) was determined in cell-based assays designed to measure JAK1 dependent STAT phosphorylation. As noted above, inhibition of IL-4, IL-13, and IL-9 signaling by blocking the Jak/Stat signaling pathway can alleviate asthmatic symptoms in pre-clinical lung inflammation models (Mathew et al., 2001, J Exp Med 193(9): 1087-1096; Kudlacz et. al., 2008, Eur J. Pharmacol 582(1-3): 154-161).
In one assay approach, TF-1 human erythroleukemia cells obtained from the American Type Culture Collection (ATCC; Manassas, Va.) were used to measure JAK1-dependent STAT6 phosphorylation downstream of IL-13 stimulation. Prior to use in the assays, TF-1 cells were starved of GM-CSF overnight in OptiMEM medium (Life Technologies, Grand Island, N.Y.) supplemented with 0.5% charcoal/dextran stripped fetal bovine serum (FBS), 0.1 mM non-essential amino acids (NEAA), and 1 mM sodium pyruvate. The assays were run in 384-well plates in serum-free OptiMEM medium using 300,000 cells per well. In a second assay approach, BEAS-2B human bronchial epithelial cells obtained from ATCC were plated at 100,000 cells per well of a 96-well plate one day prior to the experiment. The BEAS-2B assay was run in complete growth medium (bronchial epithelial basal medium plus bulletkit; Lonza; Basel, Switzerland).
Test compounds were serially diluted 1:2 in DMSO and then diluted 1:50 in medium just before use. Diluted compounds were added to the cells, for a final DMSO concentration of 0.2%, and incubated for 30 min (for the TF-1 assay) or 1 hr (for the BEAS-2B assay) at 37° C. Then, cells were stimulated with human recombinant cytokine at their respective EC90 concentrations, as previously determined for each individual lot. Cells were stimulated with IL-13 (R&D Systems, Minneapolis, Minn.) for 15 min at 37° C. The TF-1 cell reactions were stopped by the direct addition of 10× lysis buffer (Cell Signaling Technologies, Danvers, Mass.), whereas the BEAS-2B cell incubations were halted by the removal of medium and addition of 1× lysis buffer. The resultant samples were frozen in the plates at −80° C. Compound mediated inhibition of STAT6 phosphorylation was measured in the cell lysates using MesoScale Discovery (MSD) technology (Gaithersburg, Md.). EC50 values were determined as the concentration of compound required for 50% inhibition of STAT phosphorylation relative to that measured for the DMSO control.

T1 sequence (O60674 849-1124 limits assumed): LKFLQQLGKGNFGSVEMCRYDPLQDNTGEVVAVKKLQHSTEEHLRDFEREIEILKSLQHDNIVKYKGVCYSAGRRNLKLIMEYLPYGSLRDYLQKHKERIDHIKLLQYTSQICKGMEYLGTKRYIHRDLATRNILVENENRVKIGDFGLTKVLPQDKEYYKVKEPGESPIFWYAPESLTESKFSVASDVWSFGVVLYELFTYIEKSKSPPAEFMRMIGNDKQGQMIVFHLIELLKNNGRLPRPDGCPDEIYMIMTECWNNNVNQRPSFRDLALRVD

SMILES	Ki [1] [nM]	Ki [2] [nM]	IC50 [3] [nM]
CSc1ccc(OC(F)F)c(-c2nn(CC(=O)N3CC4CCCNC4C3)cc2NC(=O)c2cnn3cccnc23)c1 (stereo not drawn) [Example 35, N-[1-[2-(1,2,3,4,4a,5,7,7a-octahydropyrrolo[3,4-b]pyridin-6-yl)-2-oxo-ethyl]-3-[2-(difluoromethoxy)-5-methylsulfanyl-phenyl]pyrazol-4-yl]pyrazolo[1,5-a]pyrimidine-3-carboxamide]	0.4	0.39	19
CSc1ccc(OC(F)F)c(-c2nn(CCNC3COC3)cc2NC(=O)c2cnn3cccnc23)c1 [Example 36, N-[3-[2-(difluoromethoxy)-5-methylsulfanyl-phenyl]-1-[2-(oxetan-3-ylamino)ethyl]pyrazol-4-yl]pyrazolo[1,5-a]pyrimidine-3-carboxamide]	0.29	0.36	9.8
CSc1ccc(OC(F)F)c(-c2nn(C[C@H]3CCCN3C)cc2NC(=O)c2cnn3cccnc23)c1 [Example 37, N-[3-[2-(difluoromethoxy)-5-methylsulfanyl-phenyl]-1-[[(2R)-1-methylpyrrolidin-2-yl]methyl]pyrazol-4-yl]pyrazolo[1,5-a]pyrimidine-3-carboxamide]	0.48	0.22	9.9
CSc1ccc(OC(F)F)c(-c2nn(CC(=O)N3CC4CCCN(C)C4C3)cc2NC(=O)c2cnn3cccnc23)c1 (stereo not drawn) [Example 39, N-[3-[2-(difluoromethoxy)-5-methylsulfanyl-phenyl]-1-[2-(1-methyl-3,4,4a,5,7,7a-hexahydro-2H-pyrrolo[3,4-b]pyridin-6-yl)-2-oxo-ethyl]pyrazol-4-yl]pyrazolo[1,5-a]pyrimidine-3-carboxamide]	0.33	0.3	19
CSc1ccc(OC(F)F)c(-c2nn(CC(=O)N3CCC(NCC4(C#N)CC4)CC3)cc2NC(=O)c2cnn3cccnc23)c1 [Example 41, N-[1-[2-[4-[(1-cyanocyclopropyl)methylamino]-1-piperidyl]-2-oxo-ethyl]-3-[2-(difluoromethoxy)-5-methylsulfanyl-phenyl]pyrazol-4-yl]pyrazolo[1,5-a]pyrimidine-3-carboxamide]	0.45	0.27	20
CSc1ccc(OC(F)F)c(-c2nn(CC(=O)N3CCC(N(C)CC4(C#N)CC4)CC3)cc2NC(=O)c2cnn3cccnc23)c1 [Example 42, N-[1-[2-[4-[(1-cyanocyclopropyl)methyl-methyl-amino]-1-piperidyl]-2-oxo-ethyl]-3-[2-(difluoromethoxy)-5-methylsulfanyl-phenyl]pyrazol-4-yl]pyrazolo[1,5-a]pyrimidine-3-carboxamide]	0.26	0.17	13
CSc1ccc(OC(F)F)c(-c2nn(CC(=O)N3CCC(CN4CCC[C@H]4C(=O)N(C)C)CC3)cc2NC(=O)c2cnn3cccnc23)c1 [Example 43, N-[3-[2-(difluoromethoxy)-5-methylsulfanyl-phenyl]-1-[2-[4-[[(2S)-2-(dimethylcarbamoyl)pyrrolidin-1-yl]methyl]-1-piperidyl]-2-oxo-ethyl]pyrazol-4-yl]pyrazolo[1,5-a]pyrimidine-3-carboxamide]	0.87	0.35	76
CNC(=O)[C@@H]1CCCN1CC1CCN(C(=O)Cn2cc(NC(=O)c3cnn4cccnc34)c(-c3cc(SC)ccc3OC(F)F)n2)CC1 [Example 44, N-[3-[2-(difluoromethoxy)-5-methylsulfanyl-phenyl]-1-[2-[4-[[(2S)-2-(methylcarbamoyl)pyrrolidin-1-yl]methyl]-1-piperidyl]-2-oxo-ethyl]pyrazol-4-yl]pyrazolo[1,5-a]pyrimidine-3-carboxamide]	0.72	0.38	73
CSc1ccc(OC(F)F)c(-c2nn(CC(=O)N3CCC(N4CCCOCC4)CC3)cc2NC(=O)c2cnn3cccnc23)c1 [Example 45, N-[3-[2-(difluoromethoxy)-5-methylsulfanyl-phenyl]-1-[2-[4-(1,4-oxazepan-4-yl)-1-piperidyl]-2-oxo-ethyl]pyrazol-4-yl]pyrazolo[1,5-a]pyrimidine-3-carboxamide]	0.68	0.32	44
CSc1ccc(OC(F)F)c(-c2nn(CC(=O)N3CCC(N(C)C4COC4)CC3)cc2NC(=O)c2cnn3cccnc23)c1 [Example 46, N-(3-(2-(difluoromethoxy)-5-(methylthio)phenyl)-1-(2-(4-(methyl(oxetan-3-yl)amino)piperidin-1-yl)-2-oxoethyl)-1H-pyrazol-4-yl)pyrazolo[1,5-a]pyrimidine-3-carboxamide]	0.44	0.25	22
CSc1ccc(OC(F)F)c(-c2nn(CC(=O)N3CCC(N4CC[S+]([O-])CC4)CC3)cc2NC(=O)c2cnn3cccnc23)c1 [Example 48, N-[3-[2-(difluoromethoxy)-5-methylsulfanyl-phenyl]-1-[2-oxo-2-[4-(1-oxo-1,4-thiazinan-4-yl)-1-piperidyl]ethyl]pyrazol-4-yl]pyrazolo[1,5-a]pyrimidine-3-carboxamide]	0.44	0.29	410
CSc1ccc(OC(F)F)c(-c2nn(CC(=O)N3CCC(N(C)CC4OCCO4)CC3)cc2NC(=O)c2cnn3cccnc23)c1 [Example 50]	0.96	0.5	18

The next lines start with results.

Ki [1] [nM]	Ki [2] [nM]	SMILES	IC50 [3] [nM]
0.19	0.23	CSc1ccc(OC(F)F)c(-c2nn(CCN[C@@H]3CCCOC3)cc2NC(=O)c2cnn3cccnc23)c1 [Example 38, N-[3-[2-(difluoromethoxy)-5-methylsulfanyl-phenyl]-1-[2-[[(3R)-tetrahydropyran-3-yl]amino]ethyl]pyrazol-4-yl]pyrazolo[1,5-a]pyrimidine-3-carboxamide]	20
0.25	0.28	CSc1ccc(OC(F)F)c(-c2nn(CCN[C@H]3C[C@H](O)C3)cc2NC(=O)c2cnn3cccnc23)c1 [Example 40]	9.5
1.3	0.52	CSc1ccc(OC(F)F)c(-c2nn(CC(=O)N3CCC(N4CCC[C@H]4C(=O)N(C)C)CC3)cc2NC(=O)c2cnn3cccnc23)c1 [Example 47, N-[3-[2-(difluoromethoxy)-5-methylsulfanyl-phenyl]-1-[2-[4-[(2S)-2-(dimethylcarbamoyl)pyrrolidin-1-yl]-1-piperidyl]-2-oxo-ethyl]pyrazol-4-yl]pyrazolo[1,5-a]pyrimidine-3-carboxamide]	350
0.62	0.28	CSc1ccc(OC(F)F)c(-c2nn(CC(=O)N3CCC(N(C)[C@H]4CCOC4)CC3)cc2NC(=O)c2cnn3cccnc23)c1 [Example 49, N-[3-[2-(difluoromethoxy)-5-methylsulfanyl-phenyl]-1-[2-[4-[methyl-[(3S)-tetrahydrofuran-3-yl]amino]-1-piperidyl]-2-oxo-ethyl]pyrazol-4-yl]pyrazolo[1,5-a]pyrimidine-3-carboxamide]	15
0.97	0.43	CSc1ccc(OC(F)F)c(-c2nn(CC(=O)N3CCC(N(C)CC4(C)OCCO4)CC3)cc2NC(=O)c2cnn3cccnc23)c1 [Example 51, N-[3-[2-(difluoromethoxy)-5-methylsulfanyl-phenyl]-1-[2-[4-[methyl-[(2-methyl-1,3-dioxolan-2-yl)methyl]amino]-1-piperidyl]-2-oxo-ethyl]pyrazol-4-yl]pyrazolo[1,5-a]pyrimidine-3-carboxamide]	26
